Assay results from patent publication US11633421B2, “Use of NAD precursors for improving maternal health and/or offspring health” (UNIVERSITY OF IOWA RESEARCH FOUNDATION, priority 2016, dated 2023).

Experiments:
Format in all cases: in vivo, mice
prolactin = experiment: Prolactin levels in plasma from dam; details: plasma from dam on NC or NR chow
Source text: (§1) FIGS. 13A-D. NR boosts prolactin circulation and mammary biosynthetic pathways for protein, fat and carbohydrate. FIG. 13A. Prolactin levels in plasma from dam on NC or NR chow. FIG. 13B. mTOR pathway is activated in NR-supplemented mammary tissue. FIG. 13C. Genes involved in lipid biosynthesis are activated in NR-supplemented mammary tissue. FIG. 13D. Genes involved in lactose synthesis pathway are activated in NR-supplemented mammary tissue. […] In addition, the size of the mammary tissue itself is greater in NR-supplemented mothers than in non-supplemented mothers (FIG. 14A).

[1] = Pup post-fasting glucose and hepatic glycogen (post-partum maternal NR)
Source text: FIGS. 17A-C. 22 day old pups of NR-supplemented mothers have improved post-fasting glucose homoeostasis with higher gluconeogenic gene expression and higher hepatic glycogen storage. Not only are the offspring of NR-supplemented mothers a bit bigger, they also have better glycemic control. This is due to better gluconeogenic gene expression and higher glycogen storage. The order of the bars from left to right are: males of normal chow (NC) mothers (white with light grey outline), followed by males of NR-supplemented mothers (filled light grey), followed by females of NC mothers (white with dark grey outline), followed by females of NR-supplemented mothers (filled dark grey). Earlier it was shown that supplementation of females during their pregnancy and during the lactation period with NR produced pups with better glycemic control. […] Particularly as NR is not directly transmitted to offspring of NR-supplemented mothers, none of these effects of maternally supplemented NR could have been anticipated.

[2] = Balance beam test of offspring; details: 85 days old male and female offspring
Source text: FIGS. 22A-C. 64 days after their mother's intervention, 85-day-old adults of NR-supplemented mothers have better performance on a balance beam. They cross a beam balance faster (untrained); they slip fewer times; and they almost never grip the beam with their tail. […] The order of the bars from left to right are: males of normal chow (NC) mothers (white with light grey outline), followed by males of NR-supplemented mothers (filled light grey), followed by females of NC mothers (white with dark grey outline), followed by females of NR-supplemented mothers (filled dark grey). The improved physical functions of adult offspring of NR-supplemented mothers were not confined to advantages in making less anxious choices about where to move in space, light and dark. At 85 days old, when mice were again 64 days past their mother's intervention—again all mice were on NC show for 64 days—their untrained ability to cross a balance beam was tested. […] This was not anticipated.

[3] = Transmission of heavy-atom labeled oral NR into milk; details: oral NR labeled with heavy atoms in nicotinamide and ribose moieties, gavage to lactating mothers
Description: FIGS. 9A-B. Orally administered NR is not directly transmitted via milk.
(§2) A series of in vivo murine experiments were performed to evaluate the effects of nicotinamide riboside on milk production. […] As shown in FIGS. 8A-C, the concentration of protein, carbohydrate and fat in the milk of NR-supplemented mothers was normal. Because there is approximately 2-fold more milk produced by NR-supplemented mothers, NR-supplemented mothers transmit more calories to their offspring, which thereby assists maternal weight loss and neonatal development. In FIG. 9A, the concentration of NAD precursor vitamins in the milk from control mothers and NR-supplemented mothers was determined. […] Oral NR was labeled with heavy atoms in the nicotinamide and ribose moieties of NR and this was provided to lactating mothers by gavage.

[4] = Dark/light chamber test of offspring
Source text: FIGS. 20A-C. […] The order of the bars from left to right are: males of normal chow (NC) mothers (white with light grey outline), followed by males of NR-supplemented mothers (filled light grey), followed by females of NC mothers (white with dark grey outline), followed by females of NR-supplemented mothers (filled dark grey). It was considered interesting that males and female adults of NR-supplemented mothers maintain distinct physical advantages into adulthood on the basis of the mother's micronutrition. […] This could be interpreted either as a simple increase in activity and/or a less anxious state of being.

[5] = Offspring body composition, brain mass and activity at weaning (Example 1)
Description: Female C57BL/6N mice were raised in 12 hour light:dark cycles on Teklad 2920X chow (NC). For 12 weeks prior to mating with a single C57BL/6N male, females were on either NC (n=4) or NC+NR (n=4). Females were maintained on the same diet through gestation and weaning, which was at 21 days after birth. […] The improved body composition of mice from NR-supplemented mothers was entirely unexpected.

[6] = NAD precursor vitamins in milk
Description: as §2

mTOR pathway = experiment: phospho-mTOR in mammary tissue; details: NR-supplemented mothers
Source text: as §1

[7] = Mammary gland development (size of mammary tissue); details: NR-supplemented vs non-supplemented mothers
Source text: FIGS. 14A-B. Postpartum NR supplementation promotes mammary gland development (n=5 mice per group) (FIG. 14A). NR increases heat loss by increasing expression of UCP1 (FIG. 14B). […] In addition, the size of the mammary tissue itself is greater in NR-supplemented mothers than in non-supplemented mothers (FIG. 14A).

[8] = Elevated plus maze test of offspring; details: 85 day old adult offspring; males reached statistical significance
Source text: Males are not afraid to “stick their head out”. The order of the bars from left to right are: males of normal chow (NC) mothers (white with light grey outline), followed by males of NR-supplemented mothers (filled light grey), followed by females of NC mothers (white with dark grey outline), followed by females of NR-supplemented mothers (filled dark grey). At 64 days past the mother's intervention, the willingness of 85 day old adult offspring of mice from this experiment (NC or NR-supplemented) to put their heads out in an elevated plus maze was tested. […] The clear indication is that maternal NR produces improvements in maternal behavior and/or qualitative and/or quantitative improvements in lactation sufficient to improve the development and health of offspring. The ability of the mother's 21 day micronutrition to produce beneficial effects on her offspring into adulthood was not at all anticipated.

[9] = test system: lipid biosynthetic genes and lactose biosynthetic genes; experiment: Mammary lipid and lactose biosynthetic gene expression; details: NR in the diet
Source text: as §1

[10] = NR-supplemented vs non-supplemented mothers

SMILES: NC(=O)c1ccc[n+]([C@@H]2O[C@H](CO)[C@@H](O)[C@H]2O)c1 [NR, nicotinamide riboside]
- circulating prolactin (prolactin): very high levels
- post-fasting glucose homoeostasis of pups ([1]; 22 day old pups of NR-supplemented mothers): improved
- glycogen stored in liver ([1]; males and females whose mothers were NR-supplemented): stored more glycogen
- slips on balance beam [2]: fewer slips
- time to cross a balance beam (untrained) [2]: cross faster
- use of tail to grip the balance beam [2]: virtually no use of their tails
- labeled species released into milk [3]: only single labeled nicotinamide and no double-labeled NR
- time in the light ([4]; 75 day-old female offspring): spend more time in the light
- time in the light chamber of a dark/light chamber ([4]; 75 days of age, offspring of NR-supplemented mothers): more willing to spend time in the light chamber
- physical activity of fasted neonates ([5]; NR in the diet of female mice): greater physical activity
- body composition (fat mass) of mice raised by NR-supplemented mothers ([5]; at weaning): leaner
- brain mass of mice raised by NR-supplemented mothers ([5]; at weaning): tend toward larger brains
- NR concentration in milk [6, 10]: moderately higher
- nicotinamide (Nam) concentration in milk [6, 10]: moderately higher
- NAD precursor vitamins (total B3) transmitted ([6]; concentration coupled with larger milk volume): significantly more
- phosph-mTOR in mammary (mTOR pathway): higher level
- size of the mammary tissue [7]: greater
- willingness to put heads out in an elevated plus maze [8]: higher willingness
- mammary lactose biosynthetic genes [9]: strongly induced
- mammary lipid biosynthetic genes [9]: strongly induced
